The values below come from US7026348B2, “Indole sPLA2 inhibitors” (Eli Lilly and Company, priority 1998, dated 2006).

One may read the IC50 as the midpoint of a concentration-inhibition curve.

Counter-ions that a name gives are not always drawn.

The target in this experiment is T1, recombinant human secreted phospholipase A2 (Homo sapiens, UniProt P14555).
T1 sequence (P14555 21-144): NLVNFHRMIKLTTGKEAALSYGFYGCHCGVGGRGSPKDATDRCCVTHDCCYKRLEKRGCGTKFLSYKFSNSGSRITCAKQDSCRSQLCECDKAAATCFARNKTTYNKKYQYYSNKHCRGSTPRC
In words: chromogenic assay of recombinant human secreted phospholipase A2 inhibition. Format: biochemical. Particulars: diheptanoyl thio-PC substrate, pH 7.5, 40° C. for 30 minutes, absorbance at 405 nanometers, triplicate; read-out: Inhibition of human secreted PLA2 IC50 ± mean deviation. The text has this: The following chromogenic assay procedure was used to identify and evaluate inhibitors of recombinant human secreted phospholipase A2. The assay described herein has been adapted for high volume screening using 96 well microtiter plates. A general description of this assay method is found in the article, “Analysis of Human Synovial Fluid Phospholipase A2 on Short Chain Phosphatidylcholine-Mixed Micelles: Development of a Spectrophotometric Assay Suitable for a Microtiterplate Reader”, by Laure J. Reynolds, Lori L. Hughes, and Edward A Dennis, Analytical Biochemistry, 204, pp. 190-197, 1992 (the disclosure of which is incorporated herein by reference):
REACTION BUFFER— • CaCl2.2H2O (1.47 g/L) • KCl (7.455 g/L) • Bovine Serum Albumin (fatty acid free)(1 g/L) • (Sigma A-7030, product of Sigma Chemical Co., St. Louis Mo., USA) • TRIS HCl (3.94 g/L) • pH 7.5 (adjust with NaOH)
ENZYME BUFFER— • 0.05 NaOAc.3H2O, pH 4.5 • 0.2 NaCl • Adjust pH to 4.5 with acetic acid
DTNB—5,5′-dithiobis-2-nitrobenzoic acid
RACEMIC DIHEPTANOYL THIO—PC
racemic 1,2-bis(heptanoylthio)-1,2-dideoxy-sn-glycero-3-phosphorylcholine
TRITON X-100™ prepare at 6.249 mg/ml in reaction buffer to equal […].
A measured volume of racemic dipheptanoyl thio PC supplied in chloroform at a concentration of 100 mg/ml is taken to dryness and redissolved in 10 millimolar
TRITON X-100™ nonionic detergent aqueous solution. Reaction Buffer is added to the solution, then DTNB to give the Reaction Mixture.
The reaction mixture thus obtained contains 1 mM diheptanoly thio-PC substrate, 0.29 mm Triton X-100™ detergent, and 0.12 mm DTMB in a buffered aqueous solution at pH 7.5.
• 1. Add 0.2 ml reaction mixture to all wells; • 2. Add 10 ul test compound (or solvent blank) to appropriate wells, mix 20 seconds; • 3. Add 50 nanograms of sPLA2 (10 microliters) to appropriate wells; • 4. Incubate plate at 40° C. for 30 minutes; • 5. Read absorbance of wells at 405 nanometers with an automatic plate reader.
All compounds were tested in triplicate. Typically, compounds were tested at a final concentration of 5 ug/ml. […] Lack of color development at 405 nanometers evidenced inhibition. Compounds initially found to be active were reassayed to confirm their activity and, if sufficiently active, IC50 values were determined. […] In all cases, % inhibition measured at 405 nanometers generated by enzyme reactions containing inhibitors relative to the uninhibited control reactions was determined. Each sample was titrated in triplicate and result values were averaged for plotting and calculation of IC50 values. IC50 were determined by plotting log concentration versus inhibition values in the range from 10-90% inhibition.
As for `CCc1c(C(=O)C(N)=O)c2c(OCC(=O)NS(=O)(=O)c3ccccc3C)cccc2n1Cc1ccccc1` [Example 4, 1-benzyl-2-ethyl-4-(2-methylbenzenesulfonamidoylmethyloxy)-indole-3-glyoxylamide], the half-maximal inhibitory concentration (IC50) is 0.009 µM.
On to `CCc1c(C(=O)C(N)=O)c2c(OCC(=O)NS(=O)(=O)c3ccccc3)cccc2n1Cc1ccccc1` [Example 2, 1-benzyl-2-ethyl-4-benzenesulfonamidoylmethyloxy-indole-3-glyoxylamide], for which the IC50 is 0.007 µM.
As for `CCc1c(C(=O)C(N)=O)c2c(OCC(=O)NS(=O)(=O)C(F)(F)F)cccc2n1Cc1ccccc1` [Example 3, 1-benzyl-2-ethyl-4-trifluoromethanesulfonamidoylmethyloxy-indole-3-glyoxylamide], the figure is 0.017 µM; as for `CCc1c(C(=O)C(N)=O)c2c(OCC(=O)NS(C)(=O)=O)cccc2n1Cc1ccccc1` [Example 1, 1-benzyl-2-ethyl-4-methanesulfonamidoylmethyloxy-indole-3-glyoxylamide], 0.012 µM.
Consider `CCc1c(C(=O)C(N)=O)c2c(OCC(=O)NS(=O)(=O)c3ccc(CCN)cc3)cccc2n1Cc1ccccc1` [Example 5, 1-benzyl-2-ethyl-4-(4-(2-aminoethyl)benzenesulfonamidoylmethyloxy)-indole-3-glyoxylamide, Hydrochloride Salt], for which the IC50 came to 0.016 µM.
